Assay results from US20090042883A1, “ANTITUMOR AGENT” (KYOWA HAKKOKOGYO CO., priority 2005, published 2009).

Key:
Format in all cases: cell-based
[1] = tested on: human mammary cancer BT-474 cells; assay: Growth inhibition test on human mammary cancer BT-474 cells (WST-1, % viability); details: test compound 10 μmol/L, cells without test compound = 100%
Protocol: (§1) Four thousand cells of human mammary cancer BT-474 were inoculated into each well of a 96-well microplate (manufactured by Nunc Corp.), and using Dulbecco's Modified Eagle's Medium (DMEM) (culture medium) containing 10% FCS, preculturing was performed in a 5% carbon dioxide incubator at 37° C. for 24 hours. A DMSO solution of each test compound prepared in a concentration of 10 mmol/L was diluted with the culture medium to a final concentration of 10 μmol/L, and the diluted solution was added to each well. The individual wells were further cultured in the 5% carbon dioxide incubator at 37° C. for 72 hours. After completion of the culturing, 10 μL of WST-1 labeled mixture (manufactured by Roche Diagnostic Corp.) was added to each well, and culturing was performed in the 5% carbon dioxide incubator at 37° C. for 2 hours. Using a microplate spectrophotometer (SpectraMax 340PC384; manufactured by Nihon Molecular Devices), the absorbance of each well was measured at 450 nm and 655 nm. The value obtained by subtracting the absorbance at 450 nm from the absorbance at 655 nm (absorbance difference) was calculated for each well. The value for cells not incorporated with a test compound was designated as 100%, and the value at a well not containing cells was designated as 0%. By comparing these values with the absorbance difference obtained at the well in which each test compound was added, the cell viability (% viability) after treatment with the test compound was calculated.

[2] = tested on: human chronic myelocytic leukemia K562 cells; assay: Growth inhibition test on human chronic myelocytic leukemia K562 cells (WST-1, % viability); details: test compound 10 μmol/L, 72 hours, cells without test compound = 100%
Protocol: as §1, with “One” for “Four”, “chronic myelocytic leukemia K562” for “mammary cancer BT-474”, “RPMI1640 medium” for “Dulbecco's Modified Eagle's Medium (DMEM)”, “fetal calf serum (FCS),” for “FCS,”, “dimethyl sulfoxide (DMSO)” for “DMSO”, “WST-1 {4-[3-(4-Iodophenyl)-2-(4-nitrophenyl)-2H-5-tetrazolio]-1,3-benzene disulfonate}” for “WST-1”

[3] = tested on: human chronic lymphocytic leukemia-derived MEC-1 cells; assay: Growth inhibition test on human chronic lymphocytic leukemia-derived MEC-1 cells (WST-1, % viability); details: test compound 10 μmol/L, 72 hours, cells without test compound = 100%
Protocol: Ten thousand cells of human chronic lymphocytic leukemia-derived MEC-1 were inoculated into each well of a 96-well microplate (manufactured by Nunc Corp.), and using RPMI1640 medium (culture medium) containing 10% FCS, preculturing was performed in a 5% carbon dioxide incubator at 37° C. for 1 hour. A DMSO solution of each test compound prepared in a concentration of 10 mmol/L was diluted with the culture medium to a final concentration of 10 μmol/L, and the diluted solution was added to each well. The individual wells were further cultured in the 5% carbon dioxide incubator at 37° C. for 72 hours. After completion of the culturing, 10 μL of WST-1 labeled mixture (manufactured by Roche Diagnostic Corp.) was added to each well, and culturing was performed in the 5% carbon dioxide incubator at 37° C. for 3 hours. Using a microplate spectrophotometer (M-SPmax 250; manufactured by Molecular Devices Corp.), the absorbance of each well was measured at 450 nm and 655 nm. The value obtained by subtracting the absorbance at 450 nm from the absorbance at 655 nm (absorbance difference) was calculated for each well. The value for cells not incorporated with a test compound was designated as 100%, and the value at a well not containing cells was designated as 0%. By comparing these values with the absorbance difference obtained at the well in which each test compound was added, the cell viability (% viability) after treatment with the test compound was calculated.

[4] = tested on: human multiple myeloma NCI-H929 cells; assay: Growth inhibition test on human multiple myeloma NCI-H929 cells (WST-1, % viability); details: test compound 10 μmol/L, cells without test compound = 100%
Protocol: as §1, with “Ten” for “Four”, “multiple myeloma NCI-H929” for “mammary cancer BT-474”, “RPMI medium” for “Dulbecco's Modified Eagle's Medium (DMEM)”

CCc1c(O)cc(O)c(C(=O)c2ccc(OC(C)C)cc2)c1CC(=O)N(CCOC)CCN1CCOCC1 [Compound 134]
Viability of tumor cells (% viability), Human mammary cancer BT-474 cells [1]: 13%
Viability of tumor cells (% viability), Human chronic myelocytic leukemia K562 cells [2]: 4%
Viability of tumor cells (% viability), Human chronic lymphocytic leukemia MEC-1 cells [3]: 6%
Viability of tumor cells (% viability), Human multiple myeloma NCI-H929 cells [4]: 0%

CCc1c(O)cc(O)c(C(=O)c2ccc(OCCN3CCOCC3)c(OC)c2)c1CC(=O)N(CCOC)CCOC.Cl [Compound 139]
Viability of tumor cells (% viability), Human mammary cancer BT-474 cells [1]: 14%
Viability of tumor cells (% viability), Human chronic myelocytic leukemia K562 cells [2]: 4%
Viability of tumor cells (% viability), Human chronic lymphocytic leukemia MEC-1 cells [3]: 5%
Viability of tumor cells (% viability), Human multiple myeloma NCI-H929 cells [4]: 0%

CCc1c(O)cc(O)c(C(=O)c2ccc(C(F)(F)F)cc2)c1CC(=O)N(CCO)CCOC [Compound 144]
Viability of tumor cells (% viability), Human mammary cancer BT-474 cells [1]: 13%
Viability of tumor cells (% viability), Human chronic myelocytic leukemia K562 cells [2]: 4%
Viability of tumor cells (% viability), Human chronic lymphocytic leukemia MEC-1 cells [3]: 4%
Viability of tumor cells (% viability), Human multiple myeloma NCI-H929 cells [4]: 0%

CCc1c(O)cc(O)c(C(=O)c2ccc(OCCCN3CCOCC3)c(OC)c2)c1CC(=O)N(CCOC)CCOC [Compound 149]
Viability of tumor cells (% viability), Human mammary cancer BT-474 cells [1]: 14%
Viability of tumor cells (% viability), Human chronic myelocytic leukemia K562 cells [2]: 4%
Viability of tumor cells (% viability), Human chronic lymphocytic leukemia MEC-1 cells [3]: 5%
Viability of tumor cells (% viability), Human multiple myeloma NCI-H929 cells [4]: 0%

CCc1c(O)cc(O)c(C(=O)c2ccsc2)c1CC(=O)N(CCO)CCOC [Compound 151]
Viability of tumor cells (% viability), Human mammary cancer BT-474 cells [1]: 13%
Viability of tumor cells (% viability), Human chronic myelocytic leukemia K562 cells [2]: 4%
Viability of tumor cells (% viability), Human chronic lymphocytic leukemia MEC-1 cells [3]: 4%
Viability of tumor cells (% viability), Human multiple myeloma NCI-H929 cells [4]: 0%
